# Laboratory results reported in patent US8772268B2, “Bisphosphonamidate prodrugs and uses thereof” (The Johns Hopkins University, priority 2010, dated 2014).
# Values joined by “and” are separate entries in the source; they are usually repeats but may differ in a detail not shown here. Identical values can stand only once. Like-named read-outs stand apart in the source and are kept apart here.
# How the values were obtained:
# A549 NSCLC cells = test: MTS cell proliferation assay, A549; assay type: cell-based; conditions: for IC50: A549, MTS, read-out: IC50 (decreased cell proliferation by 50% compared to control)
# Protocol: Cell proliferation was determined using the CellTiter 96 Aqueous One Solution Cell Proliferation Assay MTS assay. A549 NSCLC cells were plated at 1.5×10^3 cells per well in flat bottom 96 well plates in 99 μL of media and allowed to adhere overnight. The drugs were serially diluted in 100% DMSO. For each drug treatment group, 1 μL of a 100× stock solution was added to each well for a final DMSO concentration of 1%. Cells were treated for 24, 48 or 72 hours. Cells were incubated with MTS dye (20 μL well^−1) for 40 min to 2 h. Absorbance at 490 nm was determined using a SpectraMax M2 (Molecular Devices) plate reader. The percent cell proliferation was calculated by converting the experimental absorbance to percentage of control, which was then plotted vs. drug concentration. The IC50 values were determined using a non-linear dose-response analysis in GraphPad Prism version 4.0. The IC50 is defined as the concentration of drug needed to cause a 50% decrease in proliferation compared to vehicle control. […]
# [1] = system: MDA-MB-453 (breast) cancer cell line; test: MTS cell proliferation assay, MDA-MB-453; assay type: cell-based
# Protocol: Cell proliferation was determined using the CellTiter 96 Aqueous One Solution Cell Proliferation Assay MTS assay. A549 NSCLC cells were plated at 1.5×10^3 cells per well in flat bottom 96 well plates in 99 μL of media and allowed to adhere overnight. The drugs were serially diluted in 100% DMSO. For each drug treatment group, 1 μL of a 100× stock solution was added to each well for a final DMSO concentration of 1%. Cells were treated for 24, 48 or 72 hours. Cells were incubated with MTS dye (20 μL well^−1) for 40 min to 2 h. Absorbance at 490 nm was determined using a SpectraMax M2 (Molecular Devices) plate reader. The percent cell proliferation was calculated by converting the experimental absorbance to percentage of control, which was then plotted vs. drug concentration. The IC50 values were determined using a non-linear dose-response analysis in GraphPad Prism version 4.0. The IC50 is defined as the concentration of drug needed to cause a 50% decrease in proliferation compared to vehicle control.
# The activity of Clodronate prodrug (14) was tested against other cell lines, include prostate (PIP3) and breast (MDA-MB-453) cancer cells lines. Cell proliferation was determined using the CellTiter 96 Aqueous One Solution Cell Proliferation Assay MTS assay as discussed above. Results are shown in FIG. 22 and in the table below.
# [2] = In vivo tolerance study, I.V. dosing (tail vein); set-up: species or system Balb/c mice
# Protocol: Ten Balb/c mice were split into three groups: untreated, vehicle and clodronate prodrug. Untreated mice received no treatment or injection. The vehicle was 100 μL 10% cremaphor in ddH20 injected into the tale vein. 100 μL of 3 mM Clodronate Prodrug dissolved in 10% cremaphor in ddH20. (100 μL of 3 mM is about 14 mg/kg).
# HL-60(TB) = test: NCI-60 DTP Human Tumor Cell Line Screen; assay type: cell-based; conditions: Leukemia, 48 h
# K-562 = test: NCI-60 DTP Human Tumor Cell Line Screen; assay type: cell-based; conditions: K-562, Leukemia, 48 h
# MOLT-4 = test: NCI-60 DTP Human Tumor Cell Line Screen; assay type: cell-based; conditions: MOLT-4, Leukemia, 48 h
# COLO 205 = test: NCI-60 DTP Human Tumor Cell Line Screen; assay type: cell-based; conditions: COLO 205, Colon Cancer, 48 h
# HCT-116 = test: NCI-60 DTP Human Tumor Cell Line Screen; assay type: cell-based; conditions: HCT-116, Colon Cancer, 48 h
# U251 = test: NCI-60 DTP Human Tumor Cell Line Screen; assay type: cell-based; conditions: U251, CNS Cancer, 48 h
# MALME-3M = test: NCI-60 DTP Human Tumor Cell Line Screen; assay type: cell-based; conditions: Melanoma, 48 h
# OVCAR-4 = test: NCI-60 DTP Human Tumor Cell Line Screen; assay type: cell-based; conditions: OVCAR-4, Ovarian Cancer, 48 h
# OVCAR-8 = test: NCI-60 DTP Human Tumor Cell Line Screen; assay type: cell-based; conditions: OVCAR-8, Ovarian Cancer, 48 h
# A498 = test: NCI-60 DTP Human Tumor Cell Line Screen; assay type: cell-based; conditions: A498, Renal Cancer, 48 h
# ACHN = test: NCI-60 DTP Human Tumor Cell Line Screen; assay type: cell-based; conditions: Renal Cancer, 48 h
# SN12C = test: NCI-60 DTP Human Tumor Cell Line Screen; assay type: cell-based; conditions: Renal Cancer, 48 h
# HS 578T = test: NCI-60 DTP Human Tumor Cell Line Screen; assay type: cell-based; conditions: Breast Cancer, 48 h
# BT-549 = test: NCI-60 DTP Human Tumor Cell Line Screen; assay type: cell-based; conditions: BT-549, Breast Cancer, 48 h
# MDA-MB-468 = test: NCI-60 DTP Human Tumor Cell Line Screen; assay type: cell-based; conditions: MDA-MB-468, Breast Cancer, 48 h
structure (smiles),measurement,setting,value
CN(CCCCCl)P(=O)(OCc1ccc([N+](=O)[O-])cc1)C(Cl)(Cl)P(=O)(OCc1ccc([N+](=O)[O-])cc1)N(C)CCCCCl (centres unmarked) [compound 14],growth inhibitory effect on A549 cells,A549 NSCLC cells; 48 and 72 h,complete growth inhibition
same,growth inhibitory effect on A549 cells,A549 NSCLC cells; 24 h,partial growth inhibitory effect
same,EC50,"A549 NSCLC cells; A549 (NSCLC), MTS, table of Example 3",8 µM
same,IC50,A549 NSCLC cells; 24 h,7.6 ± 3 µM
same,IC50,A549 NSCLC cells; 48 h,5.2 ± 1 µM
same,IC50,A549 NSCLC cells; 72 h,4.4 ± 2 µM
same,EC50,[1],9 µM
same,Mouse weight,"[2]; Mar. 21, 2011, i.v. 100 μL of 3 mM (about 14 mg/kg), individual mice, listed as cloprodrug",15.9 g and 14.5 g and 15.6 g
same,Δ in weight,"[2]; Mar. 21 to Mar. 28, 2011, i.v. about 14 mg/kg, individual mice, listed as cloprodrug",2.2 g and 2.7 g and 0.6 g
same,Mouse weight,"[2]; Mar. 23, 2011, i.v. about 14 mg/kg, individual mice, listed as cloprodrug",17.6 g and 16.4 g and 16.2 g
same,Mouse weight,"[2]; Mar. 25, 2011, i.v. about 14 mg/kg, individual mice, listed as cloprodrug",18.2 g and 16.8 g and 16.4 g
same,Mouse weight,"[2]; Mar. 28, 2011, i.v. about 14 mg/kg, individual mice, listed as cloprodrug",18.1 g and 17.2 g and 16.2 g
same,behavior,[2]; i.v. about 14 mg/kg,no unusual behavior observed
same,difference in weight between the three treatment groups,[2]; i.v. about 14 mg/kg vs vehicle and untreated,no significant difference in weight
same,Log10GI50,HL-60(TB),−5.39
same,Log10LC50,HL-60(TB),>−4.00
same,Log10TGI,HL-60(TB),>−4.00
same,Log10GI50,K-562,−5.45
same,Log10LC50,K-562,>−4.00
same,Log10TGI,K-562,>−4.00
same,Log10GI50,MOLT-4,−5.53
same,Log10LC50,MOLT-4,>−4.00
same,Log10TGI,MOLT-4,−5.04
same,Log10GI50,COLO 205,−5.53
same,Log10LC50,COLO 205,>−4.00
same,Log10TGI,COLO 205,−5.10
same,Log10GI50,HCT-116,−5.58
same,Log10LC50,HCT-116,>−4.00
same,Log10TGI,HCT-116,>−4.00
same,Log10GI50,U251,−5.45
same,Log10LC50,U251,>−4.00
same,Log10TGI,U251,>−4.00
same,Log10GI50,MALME-3M,−5.39
same,Log10LC50,MALME-3M,>−4.00
same,Log10TGI,MALME-3M,>−4.00
same,Log10GI50,OVCAR-4,−5.54
same,Log10LC50,OVCAR-4,>−4.00
same,Log10TGI,OVCAR-4,>−4.00
same,Log10GI50,OVCAR-8,−5.38
same,Log10LC50,OVCAR-8,>−4.00
same,Log10TGI,OVCAR-8,>−4.00
same,Log10GI50,A498,−5.74
same,Log10LC50,A498,>−4.00
same,Log10TGI,A498,−5.17
same,Log10GI50,ACHN,−5.49
same,Log10LC50,ACHN,>−4.00
same,Log10TGI,ACHN,>−4.00
same,Log10GI50,SN12C,−5.42
same,Log10LC50,SN12C,>−4.00
same,Log10TGI,SN12C,>−4.00
same,Log10GI50,HS 578T,−5.53
same,Log10LC50,HS 578T,>−4.00
same,Log10TGI,HS 578T,−5.04
same,Log10GI50,BT-549,−5.50
same,Log10LC50,BT-549,>−4.00
same,Log10TGI,BT-549,−5.03
same,Log10GI50,MDA-MB-468,−5.58
same,Log10LC50,MDA-MB-468,>−4.00
same,Log10TGI,MDA-MB-468,−5.07
